Activity calls are given as the source filed them. The calls are words filed in the database; no cut-off is given here.
Key:
[1] = biological target: T1, Neuronal acetylcholine receptor; alpha3/beta4 (Homo sapiens, UniProt P30926+P32297); experiment: Displacement of [3H]-epibatidine from human alpha3beta4 nACh receptor expressed in HEK293 cells preincubated for 5 mins followed by radioligand addition by beta counting analysis; assay type: cell-based
[2] = biological target: Neuronal acetylcholine receptor; alpha4/beta2 (Rattus norvegicus, UniProt P09483+P12390); experiment: Displacement of [3H]-epibatidine from rat alpha4beta2 nACh receptor expressed in rat cortical membrane preincubated for 30 mins followed by radioligand addition by […] analysis; assay type: cell membranes
[3] = biological target: Neuronal acetylcholine receptor subunit alpha-7 (Rattus norvegicus, UniProt Q05941); experiment: Displacement of [125I] alpha bungarotoxin from rat alpha7 nACh receptor expressed in rat hippocampal membrane preincubated for 30 mins followed by radioligand addition by gamma counting analysis; assay type: cell membranes, Hippocampus
Homo sapiens [4] = species on record: Homo sapiens; experiment: Selectivity ratio of Ki for rat alpha4beta2 nACh receptor to Ki for human alpha3beta4 nACh receptor
Homo sapiens [5] = species on record: Homo sapiens; experiment: Selectivity ratio of Ki for rat alpha7 nACh receptor to Ki for human alpha3beta4 nACh receptor
[6] = biological target: T2, Neuronal acetylcholine receptor subunit alpha-7 (Homo sapiens, UniProt P36544); experiment: Agonist activity at human alpha7 nACh receptor expressed in rat GH4C1 cells assessed as increase in current amplitudes after 2 to 3 days by patch clamp assay; assay type: cell-based, GH4-C1
[7] = biological target: T1, Neuronal acetylcholine receptor; alpha3/beta4; experiment: Agonist activity at human alpha3beta4 nACh receptor expressed in rat GH4C1 cells assessed as increase in current amplitudes after 2 to 3 days by patch clamp assay; assay type: cell-based, GH4-C1
[8] = biological target: T3, Neuronal acetylcholine receptor; alpha4/beta2 (Homo sapiens) (UniProt P17787+P43681); experiment: Antagonist activity at human alpha4beta2 nACh receptor; assay type: protein-complex assay
[9] = biological target: T1, Neuronal acetylcholine receptor; alpha3/beta4; experiment: Antagonist activity at human alpha3beta4 nACh receptor; assay type: protein-complex assay
[10] = biological target: T3, Neuronal acetylcholine receptor; alpha4/beta2 (Homo sapiens); experiment: Agonist activity at human alpha4beta2 nACh receptor expressed in rat […] cells assessed as increase in current amplitudes at 0.1 to 100 uM after 2 to 3 days by patch clamp assay; assay type: cell-based
[11] = biological target: T1, Neuronal acetylcholine receptor; alpha3/beta4; experiment: Agonist activity at human alpha3beta4 nACh receptor expressed in rat […] cells assessed as increase in current amplitudes at 0.1 to 100 uM after 2 to 3 days by patch clamp assay relative to acetylcholine; assay type: cell-based
[12] = biological target: T2, Neuronal acetylcholine receptor subunit alpha-7; experiment: Agonist activity at human alpha7 nACh receptor expressed in rat GH4C1 cells assessed as increase in current amplitudes at 0.1 to 100 uM after 2 to 3 days by patch clamp assay; assay type: cell-based; conditions: GH4-C1

Sequence of Neuronal acetylcholine receptor; alpha4/beta2 (P09483 whole entry): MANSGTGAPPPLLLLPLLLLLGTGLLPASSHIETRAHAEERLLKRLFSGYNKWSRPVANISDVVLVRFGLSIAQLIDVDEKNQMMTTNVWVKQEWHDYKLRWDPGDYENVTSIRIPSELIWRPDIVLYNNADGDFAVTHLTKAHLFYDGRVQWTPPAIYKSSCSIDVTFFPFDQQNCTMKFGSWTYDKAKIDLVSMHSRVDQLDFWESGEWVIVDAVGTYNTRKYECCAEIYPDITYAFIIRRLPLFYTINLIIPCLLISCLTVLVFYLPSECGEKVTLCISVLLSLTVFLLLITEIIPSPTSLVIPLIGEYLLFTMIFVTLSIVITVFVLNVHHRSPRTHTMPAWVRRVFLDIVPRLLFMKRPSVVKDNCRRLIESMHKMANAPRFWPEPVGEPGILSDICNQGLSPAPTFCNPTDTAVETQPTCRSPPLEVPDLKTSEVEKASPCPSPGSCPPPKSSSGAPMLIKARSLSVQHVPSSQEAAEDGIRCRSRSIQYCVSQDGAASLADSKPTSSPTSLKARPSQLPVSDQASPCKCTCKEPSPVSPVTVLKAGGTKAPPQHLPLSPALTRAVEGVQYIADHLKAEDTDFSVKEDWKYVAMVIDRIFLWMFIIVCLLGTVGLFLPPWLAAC
Sequence of Neuronal acetylcholine receptor; alpha4/beta2 (P12390 whole entry): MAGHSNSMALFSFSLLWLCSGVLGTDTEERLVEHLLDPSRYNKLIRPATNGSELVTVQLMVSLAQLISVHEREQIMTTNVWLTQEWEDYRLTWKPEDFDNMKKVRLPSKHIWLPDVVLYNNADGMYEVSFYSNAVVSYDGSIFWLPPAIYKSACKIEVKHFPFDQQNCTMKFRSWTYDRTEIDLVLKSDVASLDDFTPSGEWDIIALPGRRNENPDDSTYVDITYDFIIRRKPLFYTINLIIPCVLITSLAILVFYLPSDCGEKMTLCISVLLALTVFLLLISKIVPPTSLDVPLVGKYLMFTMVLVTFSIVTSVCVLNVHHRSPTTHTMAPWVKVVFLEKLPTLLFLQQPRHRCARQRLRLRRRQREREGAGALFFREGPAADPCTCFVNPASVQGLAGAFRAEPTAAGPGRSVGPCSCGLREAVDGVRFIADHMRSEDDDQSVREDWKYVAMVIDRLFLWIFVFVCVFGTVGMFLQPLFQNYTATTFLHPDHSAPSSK
T1 sequence (P30926 whole entry): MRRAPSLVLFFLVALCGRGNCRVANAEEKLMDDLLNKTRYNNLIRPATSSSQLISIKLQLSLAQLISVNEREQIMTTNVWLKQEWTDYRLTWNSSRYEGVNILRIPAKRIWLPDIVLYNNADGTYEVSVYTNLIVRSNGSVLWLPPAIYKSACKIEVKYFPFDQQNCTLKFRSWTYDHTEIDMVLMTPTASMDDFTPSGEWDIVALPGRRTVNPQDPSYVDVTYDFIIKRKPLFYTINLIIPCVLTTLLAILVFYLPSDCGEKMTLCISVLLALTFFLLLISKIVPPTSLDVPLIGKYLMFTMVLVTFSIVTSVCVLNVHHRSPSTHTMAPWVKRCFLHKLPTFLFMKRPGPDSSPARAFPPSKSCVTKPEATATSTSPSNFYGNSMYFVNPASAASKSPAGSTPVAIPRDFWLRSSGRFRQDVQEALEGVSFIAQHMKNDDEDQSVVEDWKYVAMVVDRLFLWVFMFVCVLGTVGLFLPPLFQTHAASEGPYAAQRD
T1 sequence (P32297 whole entry): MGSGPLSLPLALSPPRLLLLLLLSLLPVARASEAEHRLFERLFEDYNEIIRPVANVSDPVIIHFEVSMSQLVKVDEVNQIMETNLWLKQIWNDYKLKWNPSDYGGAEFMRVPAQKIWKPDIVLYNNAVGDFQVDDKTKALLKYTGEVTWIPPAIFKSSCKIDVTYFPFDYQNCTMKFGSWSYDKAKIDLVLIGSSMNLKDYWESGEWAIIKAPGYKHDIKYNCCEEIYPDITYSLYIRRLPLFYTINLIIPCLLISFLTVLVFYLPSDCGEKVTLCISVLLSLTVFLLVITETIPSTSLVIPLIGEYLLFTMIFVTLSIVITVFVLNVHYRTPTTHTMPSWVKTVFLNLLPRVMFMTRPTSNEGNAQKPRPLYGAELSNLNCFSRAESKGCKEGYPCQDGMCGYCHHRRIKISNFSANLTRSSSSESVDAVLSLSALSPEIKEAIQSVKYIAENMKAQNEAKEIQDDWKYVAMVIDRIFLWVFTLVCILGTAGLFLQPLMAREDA
Sequence of Neuronal acetylcholine receptor subunit alpha-7 (Rattus norvegicus, UniProt Q05941) (Q05941 whole entry): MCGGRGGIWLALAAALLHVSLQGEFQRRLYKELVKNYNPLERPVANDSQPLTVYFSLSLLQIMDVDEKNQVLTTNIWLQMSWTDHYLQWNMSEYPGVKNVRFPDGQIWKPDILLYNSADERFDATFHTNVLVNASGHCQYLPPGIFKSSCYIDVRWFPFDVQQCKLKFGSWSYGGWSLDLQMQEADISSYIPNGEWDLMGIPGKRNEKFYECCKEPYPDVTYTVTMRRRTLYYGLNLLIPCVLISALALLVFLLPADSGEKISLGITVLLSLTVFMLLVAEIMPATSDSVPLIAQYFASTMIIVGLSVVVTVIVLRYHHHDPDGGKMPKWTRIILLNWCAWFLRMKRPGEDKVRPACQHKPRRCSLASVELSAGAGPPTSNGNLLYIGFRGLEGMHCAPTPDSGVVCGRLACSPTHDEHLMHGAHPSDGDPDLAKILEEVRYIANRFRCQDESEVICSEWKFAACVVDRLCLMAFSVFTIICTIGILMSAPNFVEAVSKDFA
T2 sequence (P36544 whole entry): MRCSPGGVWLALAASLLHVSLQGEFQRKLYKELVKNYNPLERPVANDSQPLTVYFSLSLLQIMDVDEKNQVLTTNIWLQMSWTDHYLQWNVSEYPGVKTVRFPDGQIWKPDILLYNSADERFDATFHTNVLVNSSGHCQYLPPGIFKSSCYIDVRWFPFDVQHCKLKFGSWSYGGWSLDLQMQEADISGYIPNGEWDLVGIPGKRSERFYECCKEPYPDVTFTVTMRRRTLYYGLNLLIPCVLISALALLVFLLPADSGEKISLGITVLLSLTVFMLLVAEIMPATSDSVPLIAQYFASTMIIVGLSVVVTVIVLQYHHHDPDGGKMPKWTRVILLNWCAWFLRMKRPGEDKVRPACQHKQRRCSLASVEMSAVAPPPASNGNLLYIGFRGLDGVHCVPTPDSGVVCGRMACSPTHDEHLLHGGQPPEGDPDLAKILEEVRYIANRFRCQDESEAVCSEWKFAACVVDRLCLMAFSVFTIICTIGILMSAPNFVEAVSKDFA

Row | SMILES | Ki [1] | Ki [2] | Ki [3] | Ratio Ki (Homo sapiens [4]) | Ratio Ki (Homo sapiens [5]) | EC50 [6] | EC50 [7] | inhibition [8] | inhibition [9] | Activity [10] | Emax [11] | Activity [12]
1 | OCc1cccc(C2=NCCCC2)c1 | 80 nM | 35000 nM | 158 nM | 438 | 2 | 60000 nM | 20000 nM |  |  |  |  | 
2 | Brc1cc(Br)cc(C2=NCCCC2)c1 | 70.8 nM | 18800 nM | 343 nM | 266 | 4.8 |  |  | inactive | inactive |  |  | 
3 | c1ccc(C2=NCCCC2)cc1 | 194 nM | 2080 nM | 2400 nM | 11 | 12 |  |  |  |  |  |  | 
4 | OCc1cccc([C@H]2C[C@@H]3CC[C@H]2N3)c1 (racemic) | 92 nM | 429 nM | 1800 nM | 4.7 | 20 |  |  |  |  |  |  | 
5 | Clc1cccc(C2=NCCCC2)c1 | 77.2 nM | 11500 nM | 394 nM | 149 | 5.1 |  |  |  |  |  |  | 
6 | Oc1cccc(C2=NCCCC2)c1 | 680 nM | 32000 nM | 9300 nM | 47 | 14 |  |  |  |  |  |  | 
7 | Brc1cccc(C2=NCCCC2)c1 | 29.8 nM | 5020 nM | 43.2 nM | 168 | 1.5 |  |  |  |  |  |  | 
8 | Fc1cc(Br)cc(C2=NCCCC2)c1 | 48 nM | 1770 nM | 204 nM | 37 | 4.3 |  |  |  |  |  |  | 
9 | Cc1cccc(C2=NCCCC2)c1 | 155 nM | 1450 nM | 384 nM | 9.4 | 2.5 |  |  |  |  |  |  | 
10 | Oc1cccc([C@H]2C[C@@H]3CC[C@H]2N3)c1 (racemic) | 80 nM | 127 nM | 609 nM | 1.6 | 7.6 |  |  |  |  |  |  | 
11 | OCc1cc(F)cc(C2=NCCCC2)c1 | 80 nM | 744 nM | 821 nM | 9.3 | 10 |  |  |  |  |  |  | 
12 | Ic1cccc(C2=NCCCC2)c1 | 4.7 nM | 3790 nM | 11.3 nM | 806 | 2.4 |  |  | inactive | inactive | inactive | 60% | inactive
13 | c1cncc(C2=NCCCC2)c1 [ANABASEINE] | 107 nM | 67 nM | 32 nM | 0.6 | 0.3 |  |  |  |  |  |  | 
14 | Fc1cccc(C2=NCCCC2)c1 | 108 nM | 2040 nM | 2370 nM | 19 | 22 |  |  |  |  |  |  | 

Reference: ChEMBL document CHEMBL3758078, “Modification of the anabaseine pyridine nucleus allows achieving binding and functional selectivity for the α3β4 nicotinic acetylcholine receptor subtype” (Eur J Med Chem, 2016)
